Columns and labels:
[1] = target: Gamma-secretase; assay: Inhibition of gamma-secretase mediated amyloid beta-40 production in HEK293 cell membranes; format: cell-based, Homo sapiens
[2] = target: Gamma-secretase; assay: Inhibition of gamma-secretase mediated amyloid beta-40 production in HEK293 cells by whole cell-based assay; parameters: species or system Homo sapiens
[3] = in vivo; conditions: rat, plasma, po, 10 mg/kg
Description: AUC (0 to 6h) in rat at 10 mg/kg, po

Row | Compound | IC50 [1] | IC50 [2] | AUC(0-t) at 6 h [3]
1 | CCC(CO)NC1CC2CCC(C1)N2C(=O)OC1(C2CCCC(c3cccc(F)c3)N2S(=O)(=O)c2ccc(Cl)cc2)CC1 (racemic) | 5.2 nM | 21.5 nM | 3070 ng·h/mL
2 | O=C(OCC1CCCC(c2cccc(F)c2)N1S(=O)(=O)c1ccc(Cl)cc1)N1CCC(N2CCCCC2)CC1 (racemic) | 11.2 nM | – | 1380 ng·h/mL
3 | CCN1CCN(C(=O)OC2(C3CCCC(c4cc(F)cc(F)c4)N3S(=O)(=O)c3ccc(Cl)cc3)CC2)CC1 (racemic) | 1.1 nM | 7.5 nM | 1400 ng·h/mL
4 | C[C@H]1CN(CCO)CCN1C(=O)OC1(C2CCCC(c3cccc(F)c3)N2S(=O)(=O)c2ccc(Cl)cc2)CC1 (mixture of isomers) | 2.1 nM | 28.7 nM | 7210 ng·h/mL
5 | C[C@H]1CN(CC2CC2)CCN1C(=O)OC1(C2CCCC(c3cc(F)cc(F)c3)N2S(=O)(=O)c2ccc(Cl)cc2)CC1 (mixture of isomers) | 6.1 nM | – | –
6 | O=C(OC1(C2CCCC(c3cc(F)cc(F)c3)N2S(=O)(=O)c2ccc(Cl)cc2)CC1)N1CCNCC1 (racemic; form 1) | 7.9 nM | – | –
7 | Cl.O=C(OC1(C2CCCC(c3cccc(F)c3)N2S(=O)(=O)c2ccc(Cl)cc2)CC1)N1CCC(N2CCCCC2)CC1 (racemic; form 2) | 0.8 nM | 5 nM | 802 ng·h/mL
8 | O=C(OC1(C2CCCC(c3cccc(F)c3)N2S(=O)(=O)c2ccc(Cl)cc2)CC1)N1C2CCC1CC(N1CCCCC1)C2 (racemic) | 2.6 nM | 9.7 nM | 2880 ng·h/mL
9 | CCCC1(O)CCN(C(=O)OC2(C3CCCC(c4cccc(F)c4)N3S(=O)(=O)c3ccc(Cl)cc3)CC2)CC1 (racemic) | 4.5 nM | 10.7 nM | –
10 | O=C(OC1(C2CCCC(c3cccc(F)c3)N2S(=O)(=O)c2ccc(Cl)cc2)CC1)N1C2CCC1CC(N1CC[C@@H](O)C1)C2 (mixture of isomers) | 3.6 nM | 20 nM | 2090 ng·h/mL
11 | O=C(OC1(C2CCCC(c3cc(F)cc(F)c3)N2S(=O)(=O)c2cc(F)cc(F)c2)CC1)N1CCC(N2CCCCC2)CC1 (racemic) | 3.5 nM | 12.9 nM | 5050 ng·h/mL
12 | O=C(OCC1CCCC(c2cc(F)cc(F)c2)N1S(=O)(=O)c1ccc(Cl)cc1)N1CCN(C2CCCCC2)CC1 (racemic) | 36.1 nM | – | –
13 | O=C(OCC1CCCC(c2cc(F)cc(F)c2)N1S(=O)(=O)c1ccc(Cl)cc1)N1CCNCC1 (racemic) | 74.8 nM | – | –
14 | CN1CN(C)C2(CCN(C(=O)OC3(C4CCCC(c5cc(F)cc(F)c5)N4S(=O)(=O)c4ccc(Cl)cc4)CC3)CC2)C1=O (racemic) | 5.3 nM | – | –
15 | CC1CN(C(=O)OC2(C3CCCC(c4cccc(F)c4)N3S(=O)(=O)c3ccc(Cl)cc3)CC2)CC(C)N1 (racemic) | 5.3 nM | 120 nM | 1810 ng·h/mL
16 | O=C(OC1(C2CCCC(c3cccc(F)c3)N2S(=O)(=O)c2ccc(Cl)cc2)CC1)N1CCC(O)(C2CC2)CC1 (racemic) | 3.7 nM | 7.7 nM | –
17 | CN(c1ccccc1)C1CCN(C(=O)OC2(C3CCCC(c4cccc(F)c4)N3S(=O)(=O)c3ccc(Cl)cc3)CC2)CC1 (racemic) | 15.4 nM | – | –

Row | Compound | IC50 [1] | IC50 [2] | AUC(0-t) at 6 h [3]
18 | C[C@H]1CN(CC2CC2)CCN1C(=O)OCC1CCCC(c2cc(F)cc(F)c2)N1S(=O)(=O)c1ccc(Cl)cc1 (mixture of isomers) | 110 nM | – | –
19 | C[C@H]1CNCCN1C(=O)OC1(C2CCCC(c3cc(F)cc(F)c3)N2S(=O)(=O)c2ccc(Cl)cc2)CC1 (mixture of isomers) | 16.8 nM | 154 nM | –
20 | O=C(OC1(C2CCCC(c3cc(F)cc(F)c3)N2S(=O)(=O)c2cc(F)cc(F)c2)CC1)N1CCN(CCO)CC1 (racemic) | 16.8 nM | 24.7 nM | 23100 ng·h/mL
21 | O=C(OC1([C@H]2CCC[C@@H](c3cc(F)cc(F)c3)N2S(=O)(=O)c2ccc(Cl)cc2)CC1)N1CCC2(CC1)C(=O)NCN2c1ccccc1 (racemic) | 8.5 nM | – | –
22 | O=C(OC1(C2CCCC(c3cccc(F)c3)N2S(=O)(=O)c2ccc(Cl)cc2)CC1)N1CCC(N2CCCCC2)CC1 (racemic; form 1) | 0.7 nM | – | –
23 | O=C(OC1(C2CCCC(c3cccc(F)c3)N2S(=O)(=O)c2ccc(Cl)cc2)CC1)N1CCN(CCO)CC1 (racemic) | 1.9 nM | 7 nM | 2090 ng·h/mL
24 | Cl.O=C(OC1(C2CCCC(c3cc(F)cc(F)c3)N2S(=O)(=O)c2ccc(Cl)cc2)CC1)N1CCNCC1 (racemic; form 2) | 7.9 nM | 106 nM | 6210 ng·h/mL
25 | CC(C)(OC(=O)N1CCC(N2CCCCC2)CC1)C1CCCC(c2cccc(F)c2)N1S(=O)(=O)c1ccc(Cl)cc1 (racemic) | 4.4 nM | – | 2430 ng·h/mL
26 | O=C(OC[C@H]1CCC[C@@H](c2cc(F)cc(F)c2)N1S(=O)(=O)c1ccc(Cl)cc1)N1CCC2(CC1)C(=O)NCN2c1ccccc1 (racemic) | 152 nM | – | –
27 | O=C(OC1(C2CCCC(c3cc(F)cc(F)c3)N2S(=O)(=O)c2ccc(Cl)cc2)CC1)N1CCC(N2CCCCC2)CC1 (racemic) | 0.3 nM | 5.8 nM | 1080 ng·h/mL
28 | CN1CN(C)C2(CCN(C(=O)OCC3CCCC(c4cc(F)cc(F)c4)N3S(=O)(=O)c3ccc(Cl)cc3)CC2)C1=O (racemic) | 26.8 nM | – | –
29 | C[C@H]1CN(C(C)(CO)CO)CCN1C(=O)OC1(C2CCCC(c3cccc(F)c3)N2S(=O)(=O)c2ccc(Cl)cc2)CC1 (mixture of isomers) | 0.9 nM | 5.1 nM | 1770 ng·h/mL
30 | CC(C)N1CCN(C(=O)OC2(C3CCCC(c4cc(F)cc(F)c4)N3S(=O)(=O)c3ccc(Cl)cc3)CC2)CC1 (racemic) | 2.7 nM | 17 nM | 783 ng·h/mL
31 | O=C(OC1(C2CCCC(c3cc(F)cc(F)c3)N2S(=O)(=O)c2ccc(Cl)cc2)CC1)N1CCN(C2CCCCC2)CC1 (racemic) | 4.2 nM | – | –
32 | O=C(OC1(C2CCCC(c3cccc(F)c3)N2S(=O)(=O)c2ccc(Cl)cc2)CC1)N1CCC(N2CCC(F)(F)CC2)CC1 (racemic) | 2.3 nM | 5.5 nM | 1670 ng·h/mL
33 | CN(c1ccccc1)C1CCN(C(=O)OCC2CCCC(c3cc(F)cc(F)c3)N2S(=O)(=O)c2ccc(Cl)cc2)CC1 (racemic) | 165 nM | – | –

— ChEMBL document CHEMBL1138400, “Discovery of gamma-secretase inhibitors efficacious in a transgenic animal model of Alzheimer's disease” (Bioorg Med Chem Lett, 2007)
